Here are results for 16 compounds from patent US5250542A, “Peripherally selective piperidine carboxylate opioid antagonists” (Eli Lilly and Company, priority 1992, dated 1993).

Counter-ions that a name gives are not always drawn. Like-named read-outs stand apart in the source and are kept apart here.

Assay [1] has as its target T1, peripheral opioid receptors (Mus musculus, UniProt P42866).
T1 construct: Mice maintained (6 mice/cage) on 0.01M saccharin water with 1 g/1 morphine sulfate; from tissue; host or cells: living morphine-maintained mice (in vivo test; endogenous receptor)
In words: precipitated diarrhea in morphine-maintained mice (peripheral opioid activity) and comparison with the writhing test. Type of assay: in vivo. The settings on record: for Ratio (AD50 mouse writhing test / ED50 mouse diarrhea test): higher ratio = greater relative antagonism of peripheral opioid receptors; for ED50: mouse, 0.5 h, morphine-maintained mice, antagonist subcutaneous or oral, 30 min observation. The gist of the method:
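Morphine-dependent mice (1 g/l morphine sulfate in drinking water ≥10 days, withdrawn 45 min before dosing) received antagonist subcutaneously or orally, 5 mice/dose. Diarrhea (and jumping) were scored over 30 min and doses lowered to find the diarrhea threshold. Peripheral selectivity was taken as writhing AD50 divided by diarrhea ED50.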

The target of another assay is T2, opioid receptor (Mus musculus, UniProt P42866).
T2 construct: Five CF-1 male mice (Charles River, Portage, Mich.); from tissue; host or cells: living CF-1 male mice (in vivo test; endogenous receptor)
T2 sequence (P42866 whole entry): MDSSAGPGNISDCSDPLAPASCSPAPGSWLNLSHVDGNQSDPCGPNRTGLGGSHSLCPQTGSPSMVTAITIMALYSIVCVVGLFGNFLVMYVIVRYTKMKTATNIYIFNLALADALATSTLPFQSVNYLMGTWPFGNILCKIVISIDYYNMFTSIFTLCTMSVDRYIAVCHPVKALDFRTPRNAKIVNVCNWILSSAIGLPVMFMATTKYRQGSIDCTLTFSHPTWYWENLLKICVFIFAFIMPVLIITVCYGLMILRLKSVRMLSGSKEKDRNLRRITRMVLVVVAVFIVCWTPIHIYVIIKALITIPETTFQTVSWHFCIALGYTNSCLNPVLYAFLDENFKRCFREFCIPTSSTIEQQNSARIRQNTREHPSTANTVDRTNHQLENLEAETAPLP
In words: mouse writhing analgesis test: block of morphine-induced analgesia. Format: in vivo, CF-1 male mice. Set-up: unit not given here. The settings on record: dose of antagonist that reduced the inhibition of writhing produced by 1.25 mg/kg morphine sulfate to 50%; subcutaneous, 20 min before acetic acid. The method, boiled down:
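Male CF-1 mice (~20 g, fasted overnight, n=5) dosed subcutaneously 20 min before i.p. 0.6% acetic acid; writhes counted for 10 min starting 5 min post-injection. Antagonism measured as blockade of morphine-induced inhibition of writhing, percent versus vehicle controls; ED50 defined as 50% writhing inhibition.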
For orientation: An intraperitoneal irritant provokes the stretching counted in writhing tests.

Another assay addresses T3, mu receptor (Rattus norvegicus, UniProt P33535).
T3 construct: rat whole brain minus cerebellum for mu was homogenized; from tissue; host or cells: brain of male Sprague Dawley rats, whole brain minus cerebellum, homogenate fraction
In words: opioid receptor binding assay, [3H] NAL (tritiated naloxone), mu receptor. The settings on record: for inhibition at 0.01 µM / inhibition at 0.1 µM: 20 min. The arrangement: species or system rat (Male Sprague Dawley), brain minus cerebellum. The gist of the method:
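Displacement of [3H]naloxone was measured on rat whole brain minus cerebellum membranes, preincubated 20 min and incubated 20 min at 37° C, with filtration separating bound ligand. Ki was derived from IC50 and ligand KD. Percent displacement was also recorded at 10 nM and 100 nM test compound.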

Where [2] appears, read: read-out: % displacement at 10 nM, 10 nM test compound, [3H] naloxone 0.5 nM.
Where [3] appears, read: read-out: % displacement at 100 nM, 100 nM test compound, [3H] naloxone 0.5 nM.
Where [4] appears, read: read-out: % displacement at 10 nM.
[5] abbreviates: read-out: % displacement at 100 nM.
The mark [6] stands for this setting: 10 nM test compound, [3H] naloxone 0.5 nM, read-out: % displacement at 10 nM.
[7] abbreviates: 100 nM test compound, [3H] naloxone 0.5 nM, read-out: % displacement at 100 nM.

T3 sequence (P33535 whole entry): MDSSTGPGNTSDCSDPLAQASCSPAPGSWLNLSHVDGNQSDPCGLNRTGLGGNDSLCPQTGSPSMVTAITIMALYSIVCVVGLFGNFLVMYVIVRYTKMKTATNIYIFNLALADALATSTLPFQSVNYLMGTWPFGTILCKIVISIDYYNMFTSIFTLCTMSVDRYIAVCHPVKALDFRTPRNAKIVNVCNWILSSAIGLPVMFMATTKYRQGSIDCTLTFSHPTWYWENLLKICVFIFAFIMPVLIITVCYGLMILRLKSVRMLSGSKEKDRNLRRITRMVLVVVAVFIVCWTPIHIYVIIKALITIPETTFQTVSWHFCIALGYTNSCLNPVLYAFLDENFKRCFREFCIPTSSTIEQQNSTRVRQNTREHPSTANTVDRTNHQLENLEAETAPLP
T1 sequence (P42866 whole entry): as the sequence (P42866 whole entry) above

As to `CCOC(=O)CCNC(=O)C(CC1CCCCC1)CN1CC[C@@](C)(c2cccc(O)c2)[C@@H](C)C1` (stereo partly drawn) [Example 36, 3-[[2-(cyclohexylmethyl)-3-[4-(3-hydroxyphenyl)-3,4-dimethyl-1-piperidinyl]-1-oxo-propyl]amino]propanoic acid ethyl ester monohydrochloride], in assay [1], the “Ratio (AD50 mouse writhing test / ED50 mouse diarrhea test)” value is recorded as 12 and the 50% effective dose (ED50) was 0.32 mg/kg. Also, at opioid receptor, the AD50 came to 3.8. On mu receptor, this compound came in with a Ki of 0.47 nM. Further, the inhibition at 0.01 µM at mu receptor (setting [2]) was found to be 79%. In addition, the inhibition at 0.1 µM at mu receptor (setting [3]) amounted to 86%.
Consider `CCOC(=O)CCCNC(=O)C(CCN1CC[C@@](C)(c2cccc(O)c2)[C@@H](C)C1)C1CCCCC1` (relative stereo) [Example 23, 4-[2-cyclohexyl-4-[4-(3-hydroxyphenyl)-3,4-dimethyl-1-piperidinyl]-1-oxobutyl]amino]-butanoic acid ethyl ester monohydrochloride monohydrate], for which, in assay [1], the “Ratio (AD50 mouse writhing test / ED50 mouse diarrhea test)” value is listed as > 140 and the ED50 is 0.14 mg/kg. Also, the AD50 on opioid receptor is > 20. Moreover, the Ki at mu receptor amounted to 1.65 nM. For the same compound, at mu receptor (setting [2]), the inhibition at 0.01 µM was found to be 100%. The inhibition at 0.1 µM at mu receptor (setting [3]) was 96%.
Consider `C[C@H]1CN(CCC(C(=O)NCCC(=O)O)C2CCCCC2)CC[C@@]1(C)c1cccc(O)c1` (relative stereo) [Example 26, 3-[4-[3,4-dimethyl-4-(-3-hydroxyphenyl)-1-piperidinyl]-2-cyclohexyl-1-oxobutylamino]-propanoic acid monohydrate], for which, in assay [1], the “Ratio (AD50 mouse writhing test / ED50 mouse diarrhea test)” value was determined as 250 and the ED50 turned out to be 0.03 mg/kg. The AD50 at opioid receptor came out at 7.5. The affinity at mu receptor, expressed as Ki, was 1.17 nM. For the same compound, on mu receptor (setting [2]), the inhibition at 0.01 µM worked out at 76%. Besides, the inhibition at 0.1 µM at mu receptor (setting [3]) amounted to 91%.
Regarding `C[C@@H]1CN(CC(Cc2ccccc2)C(=O)NCC(=O)O)CC[C@]1(C)c1cccc(O)c1` (single isomer, unassigned) [Example 98E], in assay [1], the “Ratio (AD50 mouse writhing test / ED50 mouse diarrhea test)” value was 62 and it took a dose of 0.1 mg/kg to reach the 50% effect level (ED50). On opioid receptor, this compound showed an AD50 of 6.2. Moreover, at mu receptor (setting [4]), the inhibition at 0.01 µM was found to be 69%. For the same compound, the inhibition at 0.1 µM at mu receptor (setting [5]) came to 87%.
Take `C[C@H]1CN(CC(Cc2ccccc2)C(=O)NCC(N)=O)CC[C@@]1(C)c1cccc(O)c1` (stereo partly drawn) [Example 46, N-(2-amino-2-oxoethyl)-3-[3,4-dimethyl-4-(3-hydroxyphenyl)-1-piperidinyl]-2-phenylmethyl propanamide monohydrochloride monohydrate]: in assay [1], the “Ratio (AD50 mouse writhing test / ED50 mouse diarrhea test)” value is 571 and the 50% effect level (ED50) was put at a dose of 0.07 mg/kg. In addition, at opioid receptor, the AD50 is 40. On mu receptor, this compound displayed a Ki of 0.31 nM. Moreover, the inhibition at 0.01 µM on mu receptor (setting [2]) was 99%. Moreover, the inhibition at 0.1 µM at mu receptor (setting [3]) came to 95%.
With `CCNC(=O)CNC(=O)CNC(=O)C(Cc1ccccc1)CN1CC[C@@](C)(c2cccc(O)c2)[C@@H](C)C1` (relative stereo) [Example 77], in assay [1], the “Ratio (AD50 mouse writhing test / ED50 mouse diarrhea test)” value was > 31 and the ED50 worked out at 1.31 mg/kg. Further, the AD50 on opioid receptor is recorded as > 40. Besides, on mu receptor, the affinity corresponds to a Ki of 1.35 nM. Also, the inhibition at 0.01 µM at mu receptor (setting [2]) was 88%. Besides, the inhibition at 0.1 µM at mu receptor (setting [3]) turned out to be 95%.
With `CNC(=O)CNC(=O)C(CCN1CC[C@@](C)(c2cccc(O)c2)[C@@H](C)C1)C1CCCCC1` (relative stereo) [Example 21, N-[2-(methylamino)-2-oxoethyl]-4-[4-(3-hydroxyphenyl)-3,4-dimethyl-1-piperidinyl]-2-cyclohexyl butanamide hydrochloride], in assay [1], the “Ratio (AD50 mouse writhing test / ED50 mouse diarrhea test)” value is recorded as > 125 and the ED50 came to 0.16 mg/kg. Also, the AD50 on opioid receptor is reported as > 20. Further, the affinity on mu receptor, expressed as Ki, was 0.45 nM. The inhibition at 0.01 µM at mu receptor (setting [2]) was 96%. The inhibition at 0.1 µM on mu receptor (setting [3]) was 100%.
With `CCOC(=O)C(CC1CCCCC1)CN1CC[C@@](C)(c2cccc(O)c2)[C@@H](C)C1` (relative stereo) [Example 5A, 3-(3,4-dimethyl-4-(3-hydroxyphenyl)-1-piperidinyl]-2-(cyclohexylmethyl)propanoic acid ethyl ester hydrochloride], in assay [1], the “Ratio (AD50 mouse writhing test / ED50 mouse diarrhea test)” value was 20 and the 50% effect level (ED50) was put at a dose of 0.06 mg/kg. This compound returned an AD50 on opioid receptor of 1.2. The compound also gave a Ki on mu receptor of 13.8 nM. Also, the inhibition at 0.01 µM on mu receptor (setting [2]) stood at 61%. Further, the inhibition at 0.1 µM at mu receptor (setting [3]) was 93%.
Take `C[C@H]1CN(CC(Cc2ccccc2)C(=O)NCCC(=O)OCc2ccccc2)CC[C@@]1(C)c1cccc(O)c1` (stereo partly drawn) [Example 56, hydrochloride]: in assay [1], the “Ratio (AD50 mouse writhing test / ED50 mouse diarrhea test)” value was found to be 667 and the ED50 amounted to 0.06 mg/kg. For the same compound, the AD50 at opioid receptor is recorded as 40. Also, the Ki at mu receptor was determined as 0.49 nM. For the same compound, on mu receptor (setting [2]), the inhibition at 0.01 µM was found to be 97%. Further, the inhibition at 0.1 µM at mu receptor (setting [5]) amounted to 98%.
As to `CC(C)NC(=O)CNC(=O)C(Cc1ccccc1)CN1CC[C@@](C)(c2cccc(O)c2)[C@@H](C)C1` (stereo partly drawn) [Example 48, N-(1-methylethyl)-2-[[3-[4-(3-hydroxyphenyl)-3,4-dimethyl-1-piperidinyl]-2-(phenylmethyl)-1-oxopropyl]amino]acetamide hydrochloride monohydrate], in assay [1], the “Ratio (AD50 mouse writhing test / ED50 mouse diarrhea test)” value is given as > 400 and the ED50 came out at 0.1 mg/kg. The AD50 on opioid receptor was > 40. At mu receptor, this compound gave a Ki of 1.82 nM. In addition, the inhibition at 0.01 µM at mu receptor (setting [2]) was 96%. Also, the inhibition at 0.1 µM on mu receptor (setting [3]) was 100%.
For the compound `C[C@H]1CN(CC(Cc2ccccc2)C(=O)NCCN(C)C)CC[C@@]1(C)c1cccc(O)c1` (relative stereo) [Example 69, N-[2-(dimethylamino)ethyl]-3-[4-(3-hydroxyphenyl)-3,4-dimethyl-1-piperidine]-2-phenylmethylpropanamide dihydrochloride], in assay [1], the “Ratio (AD50 mouse writhing test / ED50 mouse diarrhea test)” value came out at 51 and it took a dose of 1.7 mg/kg to reach the 50% effect level (ED50). Further, the AD50 at opioid receptor was found to be 30. In addition, the inhibition at 0.01 µM at mu receptor (setting [6]) worked out at 57%. The inhibition at 0.1 µM at mu receptor (setting [7]) was 89%.
For the compound `CCNC(=O)CCCNC(=O)C(Cc1ccccc1)CN1CC[C@@](C)(c2cccc(O)c2)[C@@H](C)C1` (stereo partly drawn) [Example 64, N-(ethyl)-4-[[3-4-(3-hydroxyphenyl)-3,4-dimethyl-1-piperidinyl]-2-(phenylmethyl)-1-oxopropyl]amino]butanamide monohydrochloride], in assay [1], the “Ratio (AD50 mouse writhing test / ED50 mouse diarrhea test)” value is on record as > 45 and the 50% effect level (ED50) was put at a dose of 0.9 mg/kg. The AD50 at opioid receptor was > 40. Further, affinity on mu receptor was put at a Ki of 1.23 nM. In addition, the inhibition at 0.01 µM at mu receptor (setting [2]) came to 94%. In addition, the inhibition at 0.1 µM on mu receptor (setting [3]) was 100%.
For `C[C@H]1CN(CCC(C(=O)N(C)C)c2ccccc2)CC[C@@]1(C)c1cccc(O)c1` (relative stereo) [Example 10, trans-4-[(3-hydroxyphenyl)-3,4-dimethyl-1-piperidinyl]-2-phenyl-N,N-dimethylbutanamide hydrochloride], in assay [1], the “Ratio (AD50 mouse writhing test / ED50 mouse diarrhea test)” value came to 9 and the ED50 stood at 0.06 mg/kg. The same compound showed an AD50 on opioid receptor of 0.54. In addition, the affinity on mu receptor, expressed as Ki, was 1.17 nM. The inhibition at 0.01 µM at mu receptor (setting [2]) came out at 89%. For the same compound, on mu receptor (setting [3]), the inhibition at 0.1 µM amounted to 100%.
Turning to `CCNC(=O)COC(=O)CNC(=O)C(Cc1ccccc1)CN1CC[C@@](C)(c2cccc(O)c2)[C@@H](C)C1` (relative stereo) [Example 89], in assay [1], the “Ratio (AD50 mouse writhing test / ED50 mouse diarrhea test)” value is < 1 and the 50% effective dose (ED50) was > 10 mg/kg. Also, the AD50 at opioid receptor was 6.0. Further, the inhibition at 0.01 µM on mu receptor (setting [6]) was found to be 94%. Besides, the inhibition at 0.1 µM on mu receptor (setting [7]) was determined as 99%.
Regarding `C[C@H]1CN(CC(CC2CCCCC2)C(=O)NCCC(=O)OCc2ccccc2)CC[C@@]1(C)c1cccc(O)c1` (relative stereo) [Example 34, 3-[[2-(cyclohexylmethyl)-1-oxo-3-[4-(3-hydroxyphenyl)-3,4-dimethyl-1-piperidinyl]propyl]-amino]propanoic acid phenylmethyl ester monohydrochloride], in assay [1], the “Ratio (AD50 mouse writhing test / ED50 mouse diarrhea test)” value is 84 and the 50% effect level (ED50) was put at a dose of 0.18 mg/kg. The compound further registered an AD50 on opioid receptor of 15.1. At mu receptor, this compound had a Ki of 36.6 nM. For the same compound, the inhibition at 0.01 µM on mu receptor (setting [2]) worked out at 78%. On mu receptor (setting [5]), the inhibition at 0.1 µM was determined as 97%.
With `C[C@H]1CN(CC(Cc2ccccc2)C(=O)O)CC[C@@]1(C)c1cccc(O)c1` (relative stereo) [Example 4B, 4-(3-hydroxyphenyl)-3,4-dimethyl-a-(phenylmethyl)-1-piperidinepropanoic acid monohydrate], in assay [1], the “Ratio (AD50 mouse writhing test / ED50 mouse diarrhea test)” value is 809 and the ED50 was determined as 0.011 mg/kg. Further, the AD50 on opioid receptor is given as 8.90. In addition, the affinity at mu receptor, expressed as Ki, was 2.62 nM. The inhibition at 0.01 µM at mu receptor (setting [4]) turned out to be 83%. Further, the inhibition at 0.1 µM at mu receptor (setting [5]) was found to be 97%.

What is called ED50 is the dose at which the effect has come halfway, by size or by number of responders. The Ki is the dissociation constant of the complex between target and ligand, obtained from inhibition or displacement.
